Laboratory results from PubChem BioAssay AID248 (DTP/NCI, 2004).
“And” between values parts separate entries of the source, which are not always exact repeats. Equal entries are not always repeated. Toxic doses and inconclusive results are not listed. Cut-off read from the data, not from the text of the source: active = T/C of 150% or more; inactive = T/C below 125%.

Test system: L1210 leukemia ip in BDF1 mice, survival T/C
Assay: NCI In Vivo Anticancer Drug Screen. Data for tumor model L1210 Leukemia (intraperitoneal) in B6D2F1 (BDF1) mice
Conditions: endpoint: mean survival time, higher = longer survival
In short: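 Tumor was transplanted into mice, which were then dosed with test compound or vehicle alone. Survival was recorded for each group, and the treated figure was expressed relative to the control figure.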

[1] = dose: 100.0 mg/kg/injection, schedule: Q01DX009 (ip), vehicle: Klucel (hydroxypropylcellulose) (HPC)
[2] = dose: 200.0 mg/kg/injection, schedule: Q01DX009 (ip), vehicle: Klucel (hydroxypropylcellulose) (HPC)
[3] = dose: 400.0 mg/kg/injection, schedule: Q01DX009 (ip), vehicle: Klucel (hydroxypropylcellulose) (HPC)
[4] = dose: 25.0 mg/kg/injection, schedule: Q04DX002 (ip), vehicle: Klucel (hydroxypropylcellulose) (HPC)
[5] = dose: 50.0 mg/kg/injection, schedule: Q04DX002 (ip), vehicle: Klucel (hydroxypropylcellulose) (HPC)
[6] = dose: 100.0 mg/kg/injection, schedule: Q04DX002 (ip), vehicle: Klucel (hydroxypropylcellulose) (HPC)
[7] = dose: 200.0 mg/kg/injection, schedule: Q04DX002 (ip), vehicle: Klucel (hydroxypropylcellulose) (HPC)
[8] = dose: 400.0 mg/kg/injection, schedule: Q04DX002 (ip), vehicle: Klucel (hydroxypropylcellulose) (HPC)
[9] = dose: 100.0 mg/kg/injection, schedule: Q01DX001 (ip), vehicle: saline
[10] = dose: 200.0 mg/kg/injection, schedule: Q01DX001 (ip), vehicle: saline
[11] = dose: 400.0 mg/kg/injection, schedule: Q01DX001 (ip), vehicle: saline
[12] = dose: 100.0 mg/kg/injection, schedule: Q01DX009 (ip), vehicle: saline with Tween-80
[13] = dose: 200.0 mg/kg/injection, schedule: Q01DX009 (ip), vehicle: saline with Tween-80
[14] = dose: 100.0 mg/kg/injection, schedule: Q04DX003 (ip), vehicle: Klucel (hydroxypropylcellulose) (HPC)
[15] = dose: 200.0 mg/kg/injection, schedule: Q04DX003 (ip), vehicle: Klucel (hydroxypropylcellulose) (HPC)
[16] = dose: 400.0 mg/kg/injection, schedule: Q04DX003 (ip), vehicle: Klucel (hydroxypropylcellulose) (HPC)
[17] = dose: 400.0 mg/kg/injection, schedule: Q01DX009 (ip), vehicle: saline with Tween-80

Measured: T/C

COC(=O)c1ccccc1NC(=O)Nc1ccc(SC)cc1
inactive: [1] 89 % of control | [2] 92 % of control | [3] 95 % of control

N#Cc1ccc(N=C(N)N[N+](=O)[O-])cc1
inactive: [4] 96 % of control | [5] 104 % of control | [6] 104 % of control

Cc1ccc(S(=O)(=O)N/N=C2/CC(C)(C)CC(=O)C2(C)C)cc1
inactive: [6] 102 % of control | [7] 102 % of control | [8] 102 % of control

Nc1[nH]c(=O)[nH]c(=O)c1N=Nc1ccc(S(=O)(=O)Nc2ncccn2)cc1
inactive: [9] 94 % of control | [10] 98 % of control | [11] 96 % of control

Cc1ccc(C(=O)n2c(Cl)c(C=O)c3ccccc32)cc1
inactive: [5] 94 % of control | [6] 97 % of control | [7] 94 % of control

C/C(=N/NC(=O)CNC(=O)c1ccccc1)c1ccc2ccccc2c1
inactive: [12] 87 % of control | [13] 100 % of control

CCOC(=O)CCCCCC(C(=O)OCC)c1nc2ccccc2[nH]c1=O (centres undefined)
inactive: [6] 99 % of control | [7] 101 % of control | [8] 86 % of control

O=C(NCN1CCOCC1)Nc1ccc(Cl)cc1
inactive: dose: 25.0 mg/kg/injection, schedule: Q01DX009 (ip), vehicle: gum acacia 100 % of control | dose: 50.0 mg/kg/injection, schedule: Q01DX009 (ip), vehicle: gum acacia 91 % of control

CCC1(c2ccccc2)NC(=O)N(C)C1=O (centres undefined)
inactive: [1] 97 % of control | [14] 100 % of control | [2] 110 % of control | [15] 95 % of control | [16] 90 % of control

Cc1[nH]c(N)nc(=S)c1CCCN(C(=O)c1ccccc1)c1ccccc1
inactive: dose: 37.5 mg/kg/injection, schedule: Q01DX001 (ip), vehicle: Klucel (hydroxypropylcellulose) (HPC) 90 % of control | dose: 150.0 mg/kg/injection, schedule: Q01DX001 (ip), vehicle: Klucel (hydroxypropylcellulose) (HPC) 90 % of control

O=C1NC(=O)c2cc([N+](=O)[O-])cc3cccc1c23
inactive: [9] 94 % of control | dose: 100.0 mg/kg/injection, schedule: Q01DX009 (ip), vehicle: saline sonified 90 % of control | [14] 97 % of control | [10] 97 % of control | dose: 200.0 mg/kg/injection, schedule: Q01DX009 (ip), vehicle: saline sonified 95 % of control | [15] 87 % of control | [11] 90 % of control | dose: 400.0 mg/kg/injection, schedule: Q01DX009 (ip), vehicle: saline sonified 88 % of control | [16] 86 % of control

Cc1ccc(C(=O)/C=C\c2ccc(Cl)cc2Cl)cc1
inactive: [14] 92 % of control | [15] 100 % of control | [16] 92 % of control

Brc1ccc(C=C2c3ccccc3-c3ccccc32)cc1
inactive: [1] 100 % of control | [14] 96 % of control | [2] 97 % of control | [15] 97 % of control | [3] 100 % of control | [16] 94 % of control

Cc1nc(N)[nH]c(=O)c1CCCNC(=O)CCl (tested in a mixture with another compound)
inactive: dose: 50.0 mg/kg/injection, schedule: Q01DX001 (ip), vehicle: Klucel (hydroxypropylcellulose) (HPC) 114 % of control | dose: 100.0 mg/kg/injection, schedule: Q01DX001 (ip), vehicle: Klucel (hydroxypropylcellulose) (HPC) 108 % of control | dose: 200.0 mg/kg/injection, schedule: Q01DX001 (ip), vehicle: Klucel (hydroxypropylcellulose) (HPC) 100 % of control

Cc1ccc(S(=O)NOCc2ccccc2)cc1 (centres undefined)
inactive: [14] 95 % of control | [15] 105 % of control | [16] 100 % of control

NC(C(=O)O)C(O)c1ccc2c(c1)OCO2 (centres undefined)
inactive: [12] 103 % of control | [13] 103 % of control | [17] 113 % of control

FC(F)(F)c1ccc2c(c1)N(CCCNCCN1CCOCC1)c1ccccc1S2
inactive: dose: 3.12 mg/kg/injection, schedule: Q01DX009 (ip), vehicle: saline 117 % of control | dose: 6.25 mg/kg/injection, schedule: Q01DX009 (ip), vehicle: saline 101 % of control | dose: 12.5 mg/kg/injection, schedule: Q01DX009 (ip), vehicle: saline 101 % of control | dose: 25.0 mg/kg/injection, schedule: Q01DX009 (ip), vehicle: saline 90 % of control | dose: 25.0 mg/kg/injection, schedule: Q04DX003 (ip), vehicle: saline 102 % of control | dose: 50.0 mg/kg/injection, schedule: Q04DX003 (ip), vehicle: saline 123 % of control

CN1C(c2ccccc2)=CN(Cc2ccccc2)C=C1c1ccccc1
inactive: [5] 103 % of control | [6] 100 % of control | [7] 97 % of control

O=C(Nc1cccc2ccccc12)OCCF
inactive: dose: 5.0 mg/kg/injection, schedule: Q01DX001 (ip), vehicle: carboxymethylcellulose (CMC) 101 % of control | dose: 10.0 mg/kg/injection, schedule: Q01DX001 (ip), vehicle: carboxymethylcellulose (CMC) 106 % of control | dose: 20.0 mg/kg/injection, schedule: Q01DX001 (ip), vehicle: carboxymethylcellulose (CMC) 104 % of control | dose: 40.0 mg/kg/injection, schedule: Q01DX001 (ip), vehicle: carboxymethylcellulose (CMC) 104 % of control | dose: 80.0 mg/kg/injection, schedule: Q01DX001 (ip), vehicle: carboxymethylcellulose (CMC) 106 % of control

c1cncc(Nc2c3ccccc3nc3ccccc23)c1
inactive: [9] 97 % of control | [10] 99 % of control | [11] 94 % of control

CCCCCc1c(C)nc([N+](=O)[O-])nc1N
inactive: dose: 3.13 mg/kg/injection, schedule: Q01DX001 (ip), vehicle: saline with Tween-80 97 % of control | dose: 6.25 mg/kg/injection, schedule: Q01DX001 (ip), vehicle: saline with Tween-80 101 % of control | dose: 12.5 mg/kg/injection, schedule: Q01DX001 (ip), vehicle: saline with Tween-80 96 % of control

COc1cccc(Oc2c(O)c3ccc(OC)cc3oc2=O)c1
inactive: [9] 100 % of control | [10] 97 % of control | [11] 97 % of control

C/C=C\c1ccc(OCCOC(=O)Nc2cccc(C(F)(F)F)c2)c(OC)c1
inactive: dose: 50.0 mg/kg/injection, schedule: Q01DX009 (ip), vehicle: saline with Tween-80 102 % of control | [12] 98 % of control and 91 % of control | [13] 95 % of control and 90 % of control | [17] 98 % of control

C=[CH][Sn]([c]1ccccc1)([c]1ccccc1)[c]1ccccc1
inactive: dose: 50.0 mg/kg/injection, schedule: Q01DX009 (ip), vehicle: saline 92 % of control and 104 % of control and 109 % of control | dose: 100.0 mg/kg/injection, schedule: Q01DX009 (ip), vehicle: saline 106 % of control and 114 % of control and 89 % of control | dose: 200.0 mg/kg/injection, schedule: Q01DX009 (ip), vehicle: saline 96 % of control and 101 % of control (2×)

CCCCCCCCCCCCCCCCNC(=S)NCCCCCCCCCCCCCCCC
inactive: [4] 93 % of control | [5] 90 % of control | [6] 102 % of control | [14] 95 % of control | [15] 101 % of control | [16] 88 % of control

N/N=C(\c1ccccc1)c1ccncc1
inactive: dose: 44.0 mg/kg/injection, schedule: Q01DX Z (ip), vehicle: methylcellulose (MC) 106 % of control | dose: 66.0 mg/kg/injection, schedule: Q01DX Z (ip), vehicle: methylcellulose (MC) 90 % of control | dose: 100.0 mg/kg/injection, schedule: Q01DX Z (ip), vehicle: methylcellulose (MC) 87 % of control

O=C(O)COc1ccc(Cl)cc1CC(Cl)CCl (centres undefined)
inactive: dose: 25.0 mg/kg/injection, schedule: Q01DX009 (ip), vehicle: Klucel (hydroxypropylcellulose) (HPC) 97 % of control | dose: 50.0 mg/kg/injection, schedule: Q01DX009 (ip), vehicle: Klucel (hydroxypropylcellulose) (HPC) 119 % of control | [1] 97 % of control and 100 % of control

NNC(=O)CCc1ccccc1O
inactive: [12] 93 % of control | [13] 91 % of control | [17] 93 % of control

COc1cc(Cl)ccc1NC(=O)Oc1ccc(OCc2ccccc2)cc1
inactive: [1] 94 % of control | [2] 94 % of control | [3] 97 % of control
